# Data: US20060069132A1, “Azolecarboxamide herbicides” (priority 2004, published 2006)
# How the values were obtained:
# Experiment in all cases: Test E pre-/postemergence herbicide test
# purple nutsedge = format: in vivo, Cyperus rotundus
# Summary of the method: (§1)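 Postemergence treatment targeted plants at the 1- to 4-leaf stage (2–18 cm), alongside preemergence treatment of planted seed; both used a non-phytotoxic solvent mixture with surfactant. Visual ratings, 0 = no effect to 100 = complete control, were taken 12 to 14 days later.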
# common mallow = format: in vivo, Malva sylvestris
# Summary of the method: as §1
# goosegrass = format: in vivo, Eleusine indica
# Summary of the method: as §1
# Russian thistle = format: in vivo, Salsola kali
# Summary of the method: as §1
# pitted morningglory = format: in vivo, Ipomoea lacunosa
# Summary of the method: as §1
# tropical spiderwort = format: in vivo, Commelina benghalensis
# Summary of the method: as §1
# common chickweed = format: in vivo, Stellaria media
# Summary of the method: as §1
# johnsongrass = format: in vivo, Sorghum halepense
# Summary of the method: as §1
# downy bromegrass = format: in vivo, Bromus tectorum
# Summary of the method: as §1
# [1] = Preemergence, 500 g ai/ha, scale 0 (no effect) to 100 (complete control)
# [2] = Postemergence, 250 g ai/ha, scale 0 to 100
# [3] = Preemergence, 62 g ai/ha, scale 0 to 100
# [4] = Preemergence, 250 g ai/ha, scale 0 (no effect) to 100 (complete control)
# [5] = postemergence, 125 g ai/ha, scale 0 to 100
# [6] = postemergence, 62 g ai/ha, scale 0 to 100
# [7] = Preemergence, 125 g ai/ha, scale 0 (no effect) to 100 (complete control)
# [8] = Preemergence, 125 g ai/ha, scale 0 to 100
# [9] = Postemergence, 500 g ai/ha, scale 0 to 100
# [10] = Preemergence, 375 g ai/ha, scale 0 (no effect) to 100 (complete control)
compound,measurement,setting,value
"CCNC(=O)c1ccc(F)c(NC(=O)c2cc(C(C)(C)C)nn2CC)c1 [Compound 2, 3-(1,1-dimethylethyl)-1-ethyl-N-[5-[(ethylamino)carbonyl]-2-fluorophenyl]-1H-pyrazole-5-carboxamide]","Plant response rating, Nutsedge, Purple",purple nutsedge; [1],95
same,"Plant response rating, Mallow",common mallow; [2],80
same,"Plant response rating, Mallow",common mallow; [3],30
same,"Plant response rating, Mallow",common mallow; [4],50
same,"Plant response rating, Mallow",common mallow; [1],80
same,"Plant response rating, Mallow",common mallow; [5],75
same,"Plant response rating, Mallow",common mallow; [6],50
same,"Plant response rating, Goosegrass",goosegrass; [2],98
same,"Plant response rating, Goosegrass",goosegrass; [3],80
same,"Plant response rating, Goosegrass",goosegrass; [7],90
same,"Plant response rating, Goosegrass",goosegrass; [4],95
same,"Plant response rating, Goosegrass",goosegrass; [1],95
same,"Plant response rating, Goosegrass",goosegrass; [5],95
same,"Plant response rating, Goosegrass",goosegrass; [6],95
same,"Plant response rating, Thistle",Russian thistle; [3],50
same,"Plant response rating, Thistle",Russian thistle; [8],60
same,"Plant response rating, Thistle",Russian thistle; [4],60
same,"Plant response rating, Thistle",Russian thistle; [1],80
same,"Plant response rating, Morningglory",pitted morningglory; [2],90
same,"Plant response rating, Morningglory",pitted morningglory; [3],30
same,"Plant response rating, Morningglory",pitted morningglory; [7],50
same,"Plant response rating, Morningglory",pitted morningglory; [4],60
same,"Plant response rating, Morningglory",pitted morningglory; [1],80
same,"Plant response rating, Morningglory",pitted morningglory; [5],60
same,"Plant response rating, Spiderwort",tropical spiderwort; [2],70
same,"Plant response rating, Spiderwort",tropical spiderwort; [3],20
same,"Plant response rating, Spiderwort",tropical spiderwort; [7],60
same,"Plant response rating, Spiderwort",tropical spiderwort; [4],70
same,"Plant response rating, Spiderwort",tropical spiderwort; [1],100
same,"Plant response rating, Spiderwort",tropical spiderwort; [6],20
same,"Plant response rating, Chickweed",common chickweed; [3],90
same,"Plant response rating, Chickweed",common chickweed; [7],90
same,"Plant response rating, Chickweed",common chickweed; [4],95
same,"Plant response rating, Chickweed",common chickweed; [1],95
same,"Plant response rating, Chickweed",common chickweed; [5],100
same,"Plant response rating, Johnsongrass",johnsongrass; [2],100
same,"Plant response rating, Johnsongrass",johnsongrass; [3],90
same,"Plant response rating, Johnsongrass",johnsongrass; [7],90
same,"Plant response rating, Johnsongrass",johnsongrass; [4],100
same,"Plant response rating, Johnsongrass",johnsongrass; [1],100
same,"Plant response rating, Johnsongrass",johnsongrass; [5],90
same,"Plant response rating, Johnsongrass",johnsongrass; [6],80
same,"Plant response rating, Bromegrass, Downy",downy bromegrass; [2],98
same,"Plant response rating, Bromegrass, Downy",downy bromegrass; [3],50
same,"Plant response rating, Bromegrass, Downy",downy bromegrass; [7],90
same,"Plant response rating, Bromegrass, Downy",downy bromegrass; [4],90
same,"Plant response rating, Bromegrass, Downy",downy bromegrass; [1],90
same,"Plant response rating, Bromegrass, Downy",downy bromegrass; [5],75
same,"Plant response rating, Bromegrass, Downy",downy bromegrass; [6],65
CCn1nc(C(C)(C)C)cc1C(=O)Nc1cc(C(=S)N(C)C)ccc1F [Compound 294],"Plant response rating, Nutsedge, Purple",purple nutsedge; [9],90
same,"Plant response rating, Nutsedge, Purple",purple nutsedge; [2],80
same,"Plant response rating, Nutsedge, Purple",purple nutsedge; [8],80
same,"Plant response rating, Nutsedge, Purple",purple nutsedge; [4],80
same,"Plant response rating, Nutsedge, Purple",purple nutsedge; [10],80
same,"Plant response rating, Nutsedge, Purple",purple nutsedge; [1],90
same,"Plant response rating, Nutsedge, Purple",purple nutsedge; [5],70
same,"Plant response rating, Nutsedge, Purple",purple nutsedge; [6],50
same,"Plant response rating, Mallow",common mallow; [9],100
same,"Plant response rating, Mallow",common mallow; [2],50
same,"Plant response rating, Mallow",common mallow; [8],40
same,"Plant response rating, Mallow",common mallow; [4],40
same,"Plant response rating, Mallow",common mallow; [1],80
same,"Plant response rating, Mallow",common mallow; [5],40
same,"Plant response rating, Mallow",common mallow; [6],20
same,"Plant response rating, Goosegrass",goosegrass; [9],85
same,"Plant response rating, Goosegrass",goosegrass; [2],80
same,"Plant response rating, Goosegrass",goosegrass; [8],95
same,"Plant response rating, Goosegrass",goosegrass; [4],95
same,"Plant response rating, Goosegrass",goosegrass; [10],100
same,"Plant response rating, Goosegrass",goosegrass; [1],100
same,"Plant response rating, Goosegrass",goosegrass; [5],60
same,"Plant response rating, Goosegrass",goosegrass; [6],50
same,"Plant response rating, Thistle",Russian thistle; [9],80
same,"Plant response rating, Thistle",Russian thistle; [2],80
same,"Plant response rating, Thistle",Russian thistle; [8],50
same,"Plant response rating, Thistle",Russian thistle; [10],100
same,"Plant response rating, Thistle",Russian thistle; [1],100
same,"Plant response rating, Morningglory",pitted morningglory; [9],20
same,"Plant response rating, Morningglory",pitted morningglory; [2],20
same,"Plant response rating, Morningglory",pitted morningglory; [8],10
same,"Plant response rating, Morningglory",pitted morningglory; [4],10
same,"Plant response rating, Morningglory",pitted morningglory; [10],40
same,"Plant response rating, Morningglory",pitted morningglory; [1],70
same,"Plant response rating, Morningglory",pitted morningglory; [5],10
same,"Plant response rating, Morningglory",pitted morningglory; [6],0
same,"Plant response rating, Spiderwort",tropical spiderwort; [9],90
same,"Plant response rating, Spiderwort",tropical spiderwort; [2],70
same,"Plant response rating, Spiderwort",tropical spiderwort; [4],85
same,"Plant response rating, Spiderwort",tropical spiderwort; [10],90
same,"Plant response rating, Spiderwort",tropical spiderwort; [1],95
same,"Plant response rating, Spiderwort",tropical spiderwort; [5],30
same,"Plant response rating, Spiderwort",tropical spiderwort; [6],20
same,"Plant response rating, Johnsongrass",johnsongrass; [9],90
same,"Plant response rating, Johnsongrass",johnsongrass; [2],80
same,"Plant response rating, Johnsongrass",johnsongrass; [8],30
same,"Plant response rating, Johnsongrass",johnsongrass; [4],75
same,"Plant response rating, Johnsongrass",johnsongrass; [10],85
same,"Plant response rating, Johnsongrass",johnsongrass; [1],85
same,"Plant response rating, Johnsongrass",johnsongrass; [5],70
same,"Plant response rating, Johnsongrass",johnsongrass; [6],40
same,"Plant response rating, Bromegrass, Downy",downy bromegrass; [9],95
same,"Plant response rating, Bromegrass, Downy",downy bromegrass; [2],85
same,"Plant response rating, Bromegrass, Downy",downy bromegrass; [8],80
same,"Plant response rating, Bromegrass, Downy",downy bromegrass; [4],100
same,"Plant response rating, Bromegrass, Downy",downy bromegrass; [10],100
same,"Plant response rating, Bromegrass, Downy",downy bromegrass; [1],100
same,"Plant response rating, Bromegrass, Downy",downy bromegrass; [5],75
same,"Plant response rating, Bromegrass, Downy",downy bromegrass; [6],60
CCn1nc(C2(C)CC2)cc1C(=O)Nc1cc(C(=O)N(C)C)ccc1F [Compound 299],"Plant response rating, Nutsedge, Purple",purple nutsedge; [9],85
same,"Plant response rating, Nutsedge, Purple",purple nutsedge; [2],80
same,"Plant response rating, Nutsedge, Purple",purple nutsedge; [3],50
same,"Plant response rating, Nutsedge, Purple",purple nutsedge; [4],80
same,"Plant response rating, Nutsedge, Purple",purple nutsedge; [5],75
same,"Plant response rating, Nutsedge, Purple",purple nutsedge; [6],40
same,"Plant response rating, Mallow",common mallow; [9],100
same,"Plant response rating, Mallow",common mallow; [2],50
same,"Plant response rating, Mallow",common mallow; [3],50
same,"Plant response rating, Mallow",common mallow; [8],75
same,"Plant response rating, Mallow",common mallow; [4],95
same,"Plant response rating, Mallow",common mallow; [1],100
same,"Plant response rating, Mallow",common mallow; [5],30
same,"Plant response rating, Mallow",common mallow; [6],10
same,"Plant response rating, Goosegrass",goosegrass; [9],85
same,"Plant response rating, Goosegrass",goosegrass; [2],80
same,"Plant response rating, Goosegrass",goosegrass; [3],100
same,"Plant response rating, Goosegrass",goosegrass; [8],100
same,"Plant response rating, Goosegrass",goosegrass; [4],100
same,"Plant response rating, Goosegrass",goosegrass; [1],100
same,"Plant response rating, Goosegrass",goosegrass; [5],80
same,"Plant response rating, Goosegrass",goosegrass; [6],60
same,"Plant response rating, Thistle",Russian thistle; [9],90
same,"Plant response rating, Thistle",Russian thistle; [2],70
same,"Plant response rating, Thistle",Russian thistle; [8],100
same,"Plant response rating, Morningglory",pitted morningglory; [9],60
same,"Plant response rating, Morningglory",pitted morningglory; [2],40
same,"Plant response rating, Morningglory",pitted morningglory; [3],10
same,"Plant response rating, Morningglory",pitted morningglory; [8],75
same,"Plant response rating, Morningglory",pitted morningglory; [4],90
same,"Plant response rating, Morningglory",pitted morningglory; [5],20
same,"Plant response rating, Morningglory",pitted morningglory; [6],10
same,"Plant response rating, Spiderwort",tropical spiderwort; [9],90
same,"Plant response rating, Spiderwort",tropical spiderwort; [2],80
same,"Plant response rating, Spiderwort",tropical spiderwort; [8],85
same,"Plant response rating, Spiderwort",tropical spiderwort; [4],95
same,"Plant response rating, Spiderwort",tropical spiderwort; [1],100
same,"Plant response rating, Spiderwort",tropical spiderwort; [5],80
same,"Plant response rating, Spiderwort",tropical spiderwort; [6],10
same,"Plant response rating, Johnsongrass",johnsongrass; [9],85
same,"Plant response rating, Johnsongrass",johnsongrass; [2],85
same,"Plant response rating, Johnsongrass",johnsongrass; [3],40
same,"Plant response rating, Johnsongrass",johnsongrass; [8],60
same,"Plant response rating, Johnsongrass",johnsongrass; [4],80
same,"Plant response rating, Johnsongrass",johnsongrass; [1],100
same,"Plant response rating, Johnsongrass",johnsongrass; [5],80
same,"Plant response rating, Johnsongrass",johnsongrass; [6],60
same,"Plant response rating, Bromegrass, Downy",downy bromegrass; [9],95
same,"Plant response rating, Bromegrass, Downy",downy bromegrass; [2],80
same,"Plant response rating, Bromegrass, Downy",downy bromegrass; [4],100
same,"Plant response rating, Bromegrass, Downy",downy bromegrass; [1],100
same,"Plant response rating, Bromegrass, Downy",downy bromegrass; [5],70
same,"Plant response rating, Bromegrass, Downy",downy bromegrass; [6],50
